From patent US11897867B2, “6-phenyl-4,5-dihydropyridazin-3(2H)-one derivatives as PDE3A and PDE3B inhibitors for treating cancer” (Bayer Aktiengesellschaft, priority 2017, dated 2024)

Tests used:
SK-MEL-3 (melanoma) = assay: Cell proliferation measurement (Cell Titer Glo), SK-MEL-3; format: cell-based; settings: Homo sapiens, SK-MEL3, SK-MEL-3 cells, 72 h treatment, read-out: Anti-proliferation IC50 SK-MEL-3 (melanoma)
Experimental: (§1) The antiproliferative activity of the compounds of the general formula (I) was examined in vitro in human cancer cells. For this purpose, 1000 cells (or 500 HeLa cells) were plated in 384-well plates with appropriate growth medium and incubated at 37° C. overnight. After 24 h, the cells on the test plate were treated with the compounds of the general formula (I) as and incubated at 37° C. for 72 h. The compounds were added to the cells by means of an HP D300 digital dispenser in a 10 (or more)-step dilution series. As control, the cells were treated with vehicle (DMSO at 0.3% final concentration). After 72 h, the cells were treated with 20 μl/well of 50% CTG solution in PBS (Promega Cell Titer Glo (catalogue #G755B and G756B)) and incubated at room temperature for 10 min, and luminescence was measured by means of a VICTOR V (Perkin Elmer), in order to determine cell viability at the end of treatment. The percentage effect on cell growth and the IC50 derived therefrom were determined for each test substance using the values from untreated wells (=percent viability). The IC50 values were calculated using a 4-parameter fit.

human full length PDE3A = biological target: T1, human full length PDE3A (Homo sapiens, UniProt Q14432); assay: PDE3A enzyme inhibition (3H-cAMP Scintillation Proximity Assay); format: biochemical; settings: PDE3A cell extract from Sf9 cells, 60 min room temperature; read-out: Target IC50 PDE3A IC50
T1 construct: Sf9 cells overexpressing human full length PDE3A; purchased SB Drug Discovery, UK; host or cells: Sf9 cells (cell extract)
Experimental: (§2) The commercially available 3H-cAMP Scintillation Proximity Assay (SPA, Perkin Elmer) system was used for enzyme inhibition studies. For the determination of the in vitro effect of test substances on the PDE3A reactions 2 μl of the respective test compound solution in DMSO (serial dilutions) were is placed in wells of microtiter plates (Isoplate-96/200W; Perkin Elmer). 50 μl of a dilution of PDE3A cell extract from Sf9 cells overexpressing human full length PDE3A (SB Drug Discovery, UK) in buffer A (50 mM Tris/HCl pH 7.5, 8.3 mM MgCl2, 1.7 mM EDTA, 0.2% BSA) was added. The dilution of the PDE3A cell extract was chosen such that the reaction kinetics was linear and less than 70% of the substrate was consumed (typical dilution 1:5000). The reaction was started by addition of 50 μl (0.025 μCi) of 1:2000 in buffer A w/o BSA diluted substrate [8-3H] adenosine 3′,5′-cyclic phosphate (1 μCi/μl; Perkin Elmer). After incubation at room temperature for 60 min, the reaction was stopped by addition of 25 μl of a suspension containing 18 mg/ml yttrium scintillation proximity beads (Perkin Elmer) in water. The microtiter plates were sealed and measured in a Microbeta scintillation counter (PerkinElmer Wallac). IC50 values were determined from sigmoidal curves by plotting percentage PDE3A activity vs log compound concentration.

human full length PDE3B = biological target: T2, human full length PDE3B (Homo sapiens, UniProt Q13370); assay: PDE3B enzyme inhibition (3H-cAMP Scintillation Proximity Assay); format: biochemical; settings: PDE3B cell extract from Sf9 cells, 60 min room temperature; read-out: Target IC50 PDE3B IC50
T2 construct: Sf9 cells overexpressing human full length PDE3B; purchased SB Drug Discovery, UK; host or cells: Sf9 cells (cell extract)
Experimental: as §2, with “PDE3B” for “PDE3A”, “were” for “were is”, “1:6000).” for “1:5000).”

[1] = tested on: HeLa cells (cervical cancer); assay: Cell proliferation measurement (Cell Titer Glo), HeLa; format: cell-based; settings: Homo sapiens, 72 h treatment, read-out: Anti-proliferation IC50 HeLa (Cervical cancer)
Experimental: as §1

T1 sequence (Q14432 whole entry): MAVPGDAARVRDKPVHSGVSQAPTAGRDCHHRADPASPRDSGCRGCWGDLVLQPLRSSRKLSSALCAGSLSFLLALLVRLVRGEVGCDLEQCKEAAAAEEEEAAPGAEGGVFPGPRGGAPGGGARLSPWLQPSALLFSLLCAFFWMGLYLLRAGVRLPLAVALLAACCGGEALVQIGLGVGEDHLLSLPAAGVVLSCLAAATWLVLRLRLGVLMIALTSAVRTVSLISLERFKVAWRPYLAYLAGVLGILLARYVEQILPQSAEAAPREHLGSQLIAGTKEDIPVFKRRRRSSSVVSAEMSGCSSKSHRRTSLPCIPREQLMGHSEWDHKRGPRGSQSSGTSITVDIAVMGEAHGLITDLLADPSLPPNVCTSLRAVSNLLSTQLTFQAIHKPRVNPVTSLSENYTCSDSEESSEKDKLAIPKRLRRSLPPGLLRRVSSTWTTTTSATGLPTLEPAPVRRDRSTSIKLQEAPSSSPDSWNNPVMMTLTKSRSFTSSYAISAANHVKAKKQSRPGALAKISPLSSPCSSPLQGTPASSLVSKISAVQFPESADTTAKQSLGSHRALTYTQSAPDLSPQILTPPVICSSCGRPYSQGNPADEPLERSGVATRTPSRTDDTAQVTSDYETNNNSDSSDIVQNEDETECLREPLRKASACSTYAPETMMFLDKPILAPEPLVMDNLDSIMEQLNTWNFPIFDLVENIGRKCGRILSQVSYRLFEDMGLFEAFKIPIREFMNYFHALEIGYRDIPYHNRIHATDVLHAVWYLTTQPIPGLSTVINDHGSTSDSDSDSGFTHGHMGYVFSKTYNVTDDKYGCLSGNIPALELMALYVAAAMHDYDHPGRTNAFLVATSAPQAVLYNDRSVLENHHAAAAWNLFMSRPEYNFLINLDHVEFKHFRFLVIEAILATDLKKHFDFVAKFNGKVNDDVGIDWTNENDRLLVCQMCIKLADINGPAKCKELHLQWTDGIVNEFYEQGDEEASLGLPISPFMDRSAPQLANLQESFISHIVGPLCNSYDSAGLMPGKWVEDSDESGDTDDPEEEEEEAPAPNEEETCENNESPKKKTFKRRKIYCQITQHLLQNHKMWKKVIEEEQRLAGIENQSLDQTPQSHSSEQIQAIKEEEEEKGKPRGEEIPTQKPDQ
T2 sequence (Q13370 whole entry): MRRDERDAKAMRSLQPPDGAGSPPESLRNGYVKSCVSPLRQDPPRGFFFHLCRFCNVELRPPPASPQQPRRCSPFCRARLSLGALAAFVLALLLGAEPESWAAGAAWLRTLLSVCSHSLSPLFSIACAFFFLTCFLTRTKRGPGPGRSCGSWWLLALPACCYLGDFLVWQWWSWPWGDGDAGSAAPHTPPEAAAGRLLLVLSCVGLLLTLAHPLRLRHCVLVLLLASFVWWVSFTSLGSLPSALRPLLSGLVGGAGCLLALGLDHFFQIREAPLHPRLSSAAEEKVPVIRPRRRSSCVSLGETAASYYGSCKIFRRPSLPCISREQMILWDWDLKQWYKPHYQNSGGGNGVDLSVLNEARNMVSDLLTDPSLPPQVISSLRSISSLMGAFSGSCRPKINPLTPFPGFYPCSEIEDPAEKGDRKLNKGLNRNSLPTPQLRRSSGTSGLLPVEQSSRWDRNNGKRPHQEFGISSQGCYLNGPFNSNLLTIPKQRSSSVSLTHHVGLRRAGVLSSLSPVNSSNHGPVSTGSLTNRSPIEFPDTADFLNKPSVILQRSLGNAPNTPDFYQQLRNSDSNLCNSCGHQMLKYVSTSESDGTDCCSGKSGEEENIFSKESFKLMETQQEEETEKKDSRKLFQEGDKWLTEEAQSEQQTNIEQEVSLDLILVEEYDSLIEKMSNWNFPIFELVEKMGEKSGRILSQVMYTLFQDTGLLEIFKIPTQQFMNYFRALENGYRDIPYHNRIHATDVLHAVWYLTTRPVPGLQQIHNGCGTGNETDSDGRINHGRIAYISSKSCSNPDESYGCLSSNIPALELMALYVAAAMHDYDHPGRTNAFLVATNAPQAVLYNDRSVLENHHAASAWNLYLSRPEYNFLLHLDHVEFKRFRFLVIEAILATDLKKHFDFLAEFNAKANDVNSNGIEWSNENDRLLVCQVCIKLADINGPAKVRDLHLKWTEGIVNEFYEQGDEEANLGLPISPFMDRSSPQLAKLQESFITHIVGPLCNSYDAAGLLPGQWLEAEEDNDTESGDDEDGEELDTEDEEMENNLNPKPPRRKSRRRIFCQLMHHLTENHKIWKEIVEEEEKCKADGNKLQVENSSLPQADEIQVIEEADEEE

SMILES | IC50 (SK-MEL-3 (melanoma)) | IC50 (human full length PDE3A) | IC50 (human full length PDE3B) | IC50 [1]
CCOc1ccccc1-c1ccc(C2=NNC(=O)CC2)cc1F [Example 52, 6-(2′-ethoxy-2-fluoro[1,1′-biphenyl]-4-yl)-4,5-dihydropyridazin-3(2H)-one] | > 100 nM | 95 nM | 65 nM | 66.8 nM
O=C1CCC(c2ccc(-c3cccc(F)c3F)c(F)c2)=NN1 [Example 53, 6-(2,2′,3′-trifluoro[1,1′-biphenyl]-4-yl)-4,5-dihydropyridazin-3(2H)-one] | 6.78 nM | 68 nM | 34 nM | 3.82 nM
O=C1CCC(c2ccc(-c3cc(F)cc(F)c3)c(F)c2)=NN1 [Example 54, 6-(2,3′,5′-trifluoro[1,1′-biphenyl]-4-yl)-4,5-dihydropyridazin-3(2H)-one] | 37.8 nM | 190 nM | 380 nM | 18.5 nM
O=C1CCC(c2ccc(-c3ccc(F)cc3F)c(F)c2)=NN1 [Example 55, 6-(2,2′,4′-trifluoro[1,1′-biphenyl]-4-yl)-4,5-dihydropyridazin-3(2H)-one] | 3.39 nM | 50 nM | 62 nM | 1.96 nM
Cc1ccc(-c2ccc(C3=NNC(=O)CC3)cc2F)c(C)c1 [Example 56, 6-(2-fluoro-2′,4′-dimethyl[1,1′-biphenyl]-4-yl)-4,5-dihydropyridazin-3(2H)-one] | 7.24 nM | 110 nM | 62 nM | 4.34 nM
Cc1ccc(F)cc1-c1ccc(C2=NNC(=O)CC2)cc1F [Example 57, 6-(2,5′-difluoro-2′-methyl[1,1′-biphenyl]-4-yl)-4,5-dihydropyridazin-3(2H)-one] | 11.8 nM | 180 nM | 60 nM | 5.34 nM
Cc1ccc(-c2ccc(C3=NNC(=O)CC3)cc2F)cc1F [Example 58, 6-(2,3′-difluoro-4′-methyl[1,1′-biphenyl]-4-yl)-4,5-dihydropyridazin-3(2H)-one] | 7.7 nM | 250 nM | 83 nM | 4.69 nM
COc1ccccc1-c1ccc(C2=NNC(=O)CC2)cc1F [Example 62, 6-(2-fluoro-2′-methoxy[1,1′-biphenyl]-4-yl)-4,5-dihydropyridazin-3(2H)-one] | 22.8 nM | 120 nM | 47 nM | 14 nM
O=C1CCC(c2ccc(-c3cccc(F)c3)c(F)c2)=NN1 [Example 63, 6-(2,3′-difluoro[1,1′-biphenyl]-4-yl)-4,5-dihydropyridazin-3(2H)-one] | 6.4 nM | 250 nM | 88 nM | 4.75 nM
Cc1ccncc1-c1ccc(C2=NNC(=O)CC2)cc1F [Example 67, 6-[3-fluoro-4-(4-methylpyridin-3-yl)phenyl]-4,5-dihydropyridazin-3(2H)-one] | 3.66 nM | 56 nM | 28 nM | 2.11 nM
Cc1ccc(F)c(-c2ccc(C3=NNC(=O)CC3)cc2F)c1 [Example 68, 6-(2,2′-difluoro-5′-methyl[1,1′-biphenyl]-4-yl)-4,5-dihydropyridazin-3(2H)-one] | 71.2 nM | 160 nM | 100 nM | 36.3 nM
COc1ncccc1-c1ccc(C2=NNC(=O)CC2)cc1F [Example 70, 6-[3-fluoro-4-(2-methoxypyridin-3-yl)phenyl]-4,5-dihydropyridazin-3(2H)-one] | 39.8 nM | 57 nM | 50 nM | 22.9 nM
O=C1CCC(c2ccc(-c3ccc(F)nc3)c(F)c2)=NN1 [Example 71, 6-[3-fluoro-4-(6-fluoropyridin-3-yl)phenyl]-4,5-dihydropyridazin-3(2H)-one] | 11.6 nM | 120 nM | 120 nM | 7.82 nM
O=C1CCC(c2ccc(-c3ccc4cc[nH]c4c3)c(F)c2)=NN1 [Example 74, 6-[3-fluoro-4-(1H-indol-6-yl)phenyl]-4,5-dihydropyridazin-3(2H)-one] | 21 nM | 110 nM | 180 nM | 13.3 nM

More lines, now with the values ahead:

IC50 (SK-MEL-3 (melanoma)) | IC50 (human full length PDE3A) | IC50 (human full length PDE3B) | IC50 [1] | SMILES
9.51 nM | 120 nM | 92 nM | 5.26 nM | O=C1CCC(c2ccc(-c3ccc(F)c(F)c3)c(F)c2)=NN1 [Example 51, 6-(2,3′,4′-trifluoro[1,1′-biphenyl]-4-yl)-4,5-dihydropyridazin-3(2H)-one]
4.2 nM | 96 nM | 47 nM | 2.08 nM | O=C1CCC(c2ccc(-c3ccccc3F)c(F)c2)=NN1 [Example 60, 6-(2,2′-difluoro[1,1′-biphenyl]-4-yl)-4,5-dihydropyridazin-3(2H)-one]
23.1 nM | 100 nM | 91 nM | 12 nM | COc1cccc(-c2ccc(C3=NNC(=O)CC3)cc2F)c1 [Example 64, 6-(2-fluoro-3′-methoxy[1,1′-biphenyl]-4-yl)-4,5-dihydropyridazin-3(2H)-one]
16.9 nM | 120 nM | 76 nM | 12.8 nM | Nc1cccc(-c2ccc(C3=NNC(=O)CC3)cc2F)c1 [Example 65, 6-(3′-amino-2-fluoro[1,1′-biphenyl]-4-yl)-4,5-dihydropyridazin-3(2H)-one]
> 100 nM | 330 nM | 290 nM | > 100 nM | Nc1ccccc1-c1ccc(C2=NNC(=O)CC2)cc1F [Example 66, 6-(2′-amino-2-fluoro[1,1′-biphenyl]-4-yl)-4,5-dihydropyridazin-3(2H)-one]
38.6 nM | 140 nM | 95 nM | 18.3 nM | O=C1CCC(c2ccc(-c3ccncc3Cl)c(F)c2)=NN1 [Example 69, 6-[4-(3-chloropyridin-4-yl)-3-fluorophenyl]-4,5-dihydropyridazin-3(2H)-one]
6.25 nM | 39 nM | 35 nM | 4.27 nM | O=C1CCC(c2ccc(-c3cccnc3F)c(F)c2)=NN1 [Example 72, 6-[3-fluoro-4-(2-fluoropyridin-3-yl)phenyl]-4,5-dihydropyridazin-3(2H)-one]
15.4 nM | 52 nM | 39 nM | 9.52 nM | Cc1cnccc1-c1ccc(C2=NNC(=O)CC2)cc1F [Example 73, 6-[3-fluoro-4-(3-methylpyridin-4-yl)phenyl]-4,5-dihydropyridazin-3(2H)-one]
43.5 nM | 100 nM | 120 nM | 27.6 nM | O=C1CCC(c2ccc(-c3cccc4[nH]ccc34)c(F)c2)=NN1 [Example 75, 6-[3-fluoro-4-(1H-indol-4-yl)phenyl]-4,5-dihydropyridazin-3(2H)-one]
8.73 nM | 90 nM | 89 nM | 5.52 nM | Nc1ccc(-c2ccc(C3=NNC(=O)CC3)cc2F)cc1 [Example 76, 6-(4′-amino-2-fluoro[1,1′-biphenyl]-4-yl)-4,5-dihydropyridazin-3(2H)-one]
